Our source for the IC50 values is patent publication US20230087118A1, “IMIDAZO[1,2-a][sequence] DERIVATIVES AND THEIR USE IN THE TREATMENT OF DISEASE” (priority 2019, published 2023).

The structures appear in SMILES notation. Counter-ions that a name gives are not always drawn.

Broadly, the IC50 is the concentration at which inhibition is half-maximal. Low values mean greater potency, high ones weaker potency.

One experiment has as its target T1, IRAK4 (Homo sapiens, UniProt Q9NWZ3).
T1 sequence (Q9NWZ3 1-460): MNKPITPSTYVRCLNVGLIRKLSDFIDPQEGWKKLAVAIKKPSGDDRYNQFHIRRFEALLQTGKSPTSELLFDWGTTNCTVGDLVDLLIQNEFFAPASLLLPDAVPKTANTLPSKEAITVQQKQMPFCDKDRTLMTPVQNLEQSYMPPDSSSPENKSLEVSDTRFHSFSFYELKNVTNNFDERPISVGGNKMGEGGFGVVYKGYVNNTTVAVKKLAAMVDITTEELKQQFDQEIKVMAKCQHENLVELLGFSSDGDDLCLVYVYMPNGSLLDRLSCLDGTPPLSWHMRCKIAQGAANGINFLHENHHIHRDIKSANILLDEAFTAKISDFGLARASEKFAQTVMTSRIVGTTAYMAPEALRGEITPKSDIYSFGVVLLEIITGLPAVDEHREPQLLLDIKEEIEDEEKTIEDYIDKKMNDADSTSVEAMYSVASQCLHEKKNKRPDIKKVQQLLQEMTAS
As to the kind of experiment: biochemical.
Settings: not given
Consider `CCCOc1nc(C(=O)Nc2cccc(C(F)(F)F)n2)cn2cc(C34COC(C)(C3)C4)nc12` [Example 343, 2-(1-Methyl-2-oxabicyclo[2.1.1]hexan-4-yl)-8-propoxy-N-(6-(trifluoromethyl)pyridin-2-yl)imidazo[1,2-a]pyrazine-6-carboxamide], for which the IC50 is 0.0048 µM. Same read-out and setting: then `O=C(Nc1cccn(C(F)F)c1=O)c1cn2cc(C3CC3)nc2cc1OC1CCOC1` (centres unmarked) [Example 459, 2-Cyclopropyl-N-(1-(difluoromethyl)-2-oxo-1,2-dihydropyridin-3-yl)-7-((tetrahydrofuran-3-yl)oxy)imidazo[1,2-a]pyridine-6-carboxamide], with 0.0084 µM. The same measure, in the same setting: then `CC(C)Oc1cc2nc(C34COC(C)(C3)C4)cn2cc1C(=O)Nc1cc(C#N)cn(C)c1=O` [Example 262, N-(5-cyano-1-methyl-2-oxo-1,2-dihydropyridin-3-yl)-7-isopropoxy-2-(1-methyl-2-oxabicyclo[2.1.1]hexan-4-yl)imidazo[1,2-a]pyridine-6-carboxamide], with 0.028 µM; and `CCC(C)Oc1nc2nc(C34COC(CF)(C3)C4)cn2cc1C(=O)Nc1cnn2cc(C)cnc12` (single isomer, unassigned) [Example 645], with 0.0005 µM. On the same count and under the same terms, then `CC(C)Oc1nc2nc(C34CCC(C)(C3)OC4)cn2cc1C(=O)Nc1cccc(C(F)F)n1` (centres unmarked) [Example 247], with 0.0002 µM; and `O=C(Nc1cccc(C(F)(F)F)n1)c1cn2cc(C3CCOCC3)nc2cn1` [Example 82], with 0.119 µM.

`CC(C)Oc1cc2nc(C34CCC(C)(C3)OC4)cn2cc1C(=O)Nc1cccc(C(F)(F)F)c1F` (centres unmarked) [Example 502, N-(2-fluoro-3-(trifluoromethyl)phenyl)-7-isopropoxy-2-(1-methyl-2-oxabicyclo[2.2.1]heptan-4-yl)imidazo[1,2-a]pyridine-6-carboxamide] came in with an IC50 of 0.0004 µM. Still for that read-out and setting: as for `CC12CCC(c3cn4cc(C(=O)Nc5ccn(CC6CC6)n5)c(OC5CCC5)cc4n3)(CO1)C2` (centres unmarked) [Example 534, 7-Cyclobutoxy-N-(1-(cyclopropylmethyl)-1H-pyrazol-3-yl)-2-(1-methyl-2-oxabicyclo[2.2.1]heptan-4-yl)imidazo[1,2-a]pyridine-6-carboxamide], the figure is 0.0135 µM; as for `COc1cc2nc(C3CCOCC3)cn2cc1C(=O)Nc1cccn2nccc12` [Example 479, 7-Methoxy-N-(pyrazolo[1,5-a]pyridin-4-yl)-2-(tetrahydro-2H-pyran-4-yl)imidazo[1,2-a]pyridine-6-carboxamide], 0.0092 µM. Same read-out and setting: then `Cn1ccc(NC(=O)c2cn3cc(C45CCC(C)(C4)OC5)nc3cc2OC2CC2)n1` (centres unmarked) [Example 552], with 0.0097 µM. Same read-out and setting: then `COc1cccc(NC(=O)c2cn3cc(C45COC(C)(C4)C5)nc3cc2OC)n1` [Example 31], with 0.015 µM. Regarding `CC12CC(c3cn4cc(C(=O)Nc5ccn(CC(F)F)n5)c(OC5CCC5)cc4n3)(CO1)C2` [Example 530, 7-Cyclobutoxy-N-(1-(2,2-difluoroethyl)-1H-pyrazol-3-yl)-2-(1-methyl-2-oxabicyclo[2.1.1]hexan-4-yl)imidazo[1,2-a]pyridine-6-carboxamide], it took 0.0056 µM to reach half-maximal inhibition (IC50).

Compound `COc1cc2nc(C3CCOCC3)cn2cc1C(=O)Nc1cccnc1OC(C)C` [Example 200] had an IC50 of 0.0115 µM. On the same count and under the same terms, then `CC(C)Oc1cc2nc([C@@]34CC[C@@](C)(C3)OC4)cn2cc1C(=O)Nc1ccn(C)n1` (single isomer, unassigned) [Example 606], with 0.0023 µM; and `CC(C)Oc1c(C(=O)Nc2cnn3cccnc23)cn2cc(C34COC(C)(C3)C4)nc2c1F` [Example 302, 8-Fluoro-7-isopropoxy-2-(1-methyl-2-oxabicyclo[2.1.1]hexan-4-yl)-N-(pyrazolo[1,5-a]pyrimidin-3-yl)imidazo[1,2-a]pyridine-6-carboxamide], with 0.0077 µM; and `CC(C)(C)c1cn2cc(C(=O)Nc3cccc(C(F)F)n3)c(OC3CCC3)cc2n1` [Example 267, 2-(tert-Butyl)-7-cyclobutoxy-N-(6-(difluoromethyl)pyridin-2-yl)imidazo[1,2-a]pyridine-6-carboxamide], with 0.002 µM. Same read-out and setting: as for `COc1nc(C(=O)Nc2cccc3c2CCC3)cn2cc(C3CCOCC3)nc12` [Example 210], the figure is 0.302 µM. As for `CCC(C)Oc1nc2nc(C34COC(C)(C3)C4)cn2cc1C(=O)Nc1cnn2cc(C)cnc12` (single isomer, unassigned) [Example 642], the IC50 was found to be 0.0013 µM. The same measure, in the same setting: then `CC(C)Oc1cc2nc(C34CCC(C)(C3)OC4)cn2cc1C(=O)Nc1cccc(C#N)n1` (centres unmarked) [Example 509, N-(6-cyanopyridin-2-yl)-7-isopropoxy-2-(1-methyl-2-oxabicyclo[2.2.1]heptan-4-yl)imidazo[1,2-a]pyridine-6-carboxamide], with 0.0003 µM; and `CC(C)Oc1nc2nc(C34CCOC(C)(C3)C4)cn2cc1C(=O)Nc1cccc(C(F)(F)F)n1` [Example 237], with 0.0003 µM; and `CC(C)Oc1c(C(=O)Nc2cccn(C)c2=O)cn2cc(C34COC(C)(C3)C4)nc2c1Cl` [Example 255, 8-Chloro-7-isopropoxy-N-(1-methyl-2-oxo-1,2-dihydropyridin-3-yl)-2-(1-methyl-2-oxabicyclo[2.1.1]hexan-4-yl)imidazo[1,2-a]pyridine-6-carboxamide], with 0.158 µM. On the same count and under the same terms, as for `CCOc1nc(C(=O)Nc2cccnc2OC)cn2cc(C3CCOCC3)nc12` [Example 209], the figure is 0.0057 µM; as for `CCOc1cccc(NC(=O)c2cn3cc(C4CC4)nc3cc2OC(C)C)n1` [Example 481, 2-Cyclopropyl-N-(6-ethoxypyridin-2-yl)-7-isopropoxyimidazo[1,2-a]pyridine-6-carboxamide], 0.0089 µM; as for `COCCCc1cn2cc(C(=O)Nc3cccc(C(F)F)n3)c(OC(C)C)cc2n1` [Example 102, N-(6-(difluoromethyl)pyridin-2-yl)-7-isopropoxy-2-(3-methoxypropyl)imidazo[1,2-a]pyridine-6-carboxamide], 0.0004 µM. On the same count and under the same terms, as for `COCc1cc2nc(C34COC(C)(C3)C4)cn2cc1C(=O)Nc1ccn(C)n1` [Example 286, 7-(Methoxymethyl)-N-(1-methyl-1H-pyrazol-3-yl)-2-(1-methyl-2-oxabicyclo[2.1.1]hexan-4-yl)imidazo[1,2-a]pyridine-6-carboxamide], the figure is 5.98 µM; as for `CC(C)Oc1nc2nc(C34COC(C)(C3)C4)cn2cc1C(=O)Nc1cccc(-c2cnoc2)n1` [Example 640, 7-Isopropoxy-N-(6-(isoxazol-4-yl)pyridin-2-yl)-2-(1-methyl-2-oxabicyclo[2.1.1]hexan-4-yl)imidazo[1,2-a]pyrimidine-6-carboxamide], 0.0007 µM. Compound `CC12CC(c3cn4cc(C(=O)Nc5cnn6cccnc56)nc(OC5CCC5)c4n3)(CO1)C2` [Example 349, 8-Cyclobutoxy-2-(1-methyl-2-oxabicyclo[2.1.1]hexan-4-yl)-N-(pyrazolo[1,5-a]pyrimidin-3-yl)imidazo[1,2-a]pyrazine-6-carboxamide] came in with an IC50 of 0.0053 µM. On the same count and under the same terms, then `Cn1nc(NC(=O)c2cn3cc(C45CCC(C)(C4)OC5)nc3cc2OC2CCC2)cc1F` (centres unmarked) [Example 419, 7-Cyclobutoxy-N-(5-fluoro-1-methyl-1H-pyrazol-3-yl)-2-(1-methyl-2-oxabicyclo[2.2.1]heptan-4-yl)imidazo[1,2-a]pyridine-6-carboxamide], with 0.0033 µM; and `CC(C)Oc1cc2nc(C34CCC(C)(C3)OC4)cn2cc1C(=O)Nc1cccc(C(F)F)n1` (centres unmarked) [Example 243], with 0.0002 µM. The same measure, in the same setting: then `CC(C)Oc1nc2nc(C34COC(C)(C3)C4)cn2cc1C(=O)Nc1cccc2ccnn12` [Example 385, 7-Isopropoxy-2-(1-methyl-2-oxabicyclo[2.1.1]hexan-4-yl)-N-(pyrazolo[1,5-a]pyridin-7-yl)imidazo[1,2-a]pyrimidine-6-carboxamide], with 0.0004 µM.

Still in this experiment, the particulars now being: IRAK4 Biochemical Assay (1 mM ATP, 2 h) IC50 (μM), 1 mM ATP, 2 h, 100 pM IRAK4.
`COc1ncccc1NC(=O)c1cn2cc(C34CC(OC)(C3)C4)nc2cc1OC(C)C` [Example 252, 7-Isopropoxy-2-(3-methoxybicyclo[1.1.1]pentan-1-yl)-N-(2-methoxypyridin-3-yl)imidazo[1,2-a]pyridine-6-carboxamide trifluoroacetate] registered an IC50 of 0.0004 µM. As to `CC(C)Oc1cc2nc(C34COC(C)(C3)C4)cn2cc1C(=O)Nc1cccc(N(C)C)n1` [Example 260, N-(6-(dimethylamino)pyridin-2-yl)-7-isopropoxy-2-(1-methyl-2-oxabicyclo[2.1.1]hexan-4-yl)imidazo[1,2-a]pyridine-6-carboxamide 2,2,2-trifluoroacetate], half-maximal inhibition (IC50) was put at 0.0005 µM.

The compound `COc1ncccc1NC(=O)c1cn2c(F)c(C34COC(C)(C3)C4)nc2cc1OC(C)C` [Example 325, 3-Fluoro-7-isopropoxy-N-(2-methoxypyridin-3-yl)-2-(1-methyl-2-oxa-bicyclo[2.1.1]hexan-4-yl)imidazo[1,2-a]pyridine-6-carboxamide trifluoroacetate] registered an IC50 of 0.0086 µM. The same measure, in the same setting: as for `CC(C)Oc1cc2nc(C34COC(C)(C3)C4)c(F)n2cc1C(=O)Nc1cccc(C(F)F)n1` [Example 324, N-(6-(difluoromethyl)pyridin-2-yl)-3-fluoro-7-isopropoxy-2-(1-methyl-2-oxabicyclo[2.1.1]hexan-4-yl)imidazo[1,2-a]pyridine-6-carboxamide trifluoroacetate], the figure is 0.002 µM. For `COc1cc2nc(C34CC(F)(C3)C4)cn2cc1C(=O)Nc1ccccn1` [Example 3], the midpoint of inhibition, the IC50, lay at 0.217 µM.
